Here are results for 22 molecules from the supplement of paper PMC10949913.

The test system of one experiment is NCI-H295R. Put plainly: ExcessHSA synergy score with TAK-243; higher = less synergy (negative = synergistic). The settings on record: combined with: TAK-243 (MLN-7243) matrix, 9-point 1:2 dilution. As for the experimental part: (§1)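 Each drug was tested at 9 points with 1:2 dilution; viability was read by CellTiter-Glo as in the single-agent screen. Synergy is scored as ExcessHSA (sum of excess over highest single agent; negative = synergy) and the Beta interaction parameter (<1 synergy).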

The test system of the next experiment is CU-ACC1. The experiment is described as above. The settings on record: combined with: TAK-243 (MLN-7243) matrix, 9-point 1:2 dilution. Here is the method:
as §1

As for `CNCc1ccc(-c2cc(-c3nc(-c4ccc(S(=O)(=O)C(C)C)cc4)cnc3N)on2)cc1` [Berzosertib], the “ExcessHSA synergy score with TAK-243” value with NCI-H295R is 144; in the experiment with CU-ACC1, -219.

Turning to `Cc1[nH]c2ccc(F)cc2c1-c1nc2c3cccnc3c3ncccc3c2[nH]1` [APTO-253], the “ExcessHSA synergy score with TAK-243” value stood at 586 in the experiment with NCI-H295R and 410 with CU-ACC1.

On to `CC(C)C[C@H](NC(=O)[C@H](CCc1ccccc1)NC(=O)CN1CCOCC1)C(=O)N[C@@H](Cc1ccccc1)C(=O)N[C@@H](CC(C)C)C(=O)[C@@]1(C)CO1` [Carfilzomib], for which the entries for the “ExcessHSA synergy score with TAK-243” value in the experiment on NCI-H295R and in the experiment on CU-ACC1 were -675 and -949, respectively.

As for `C=CC(=O)N1CC/C(=C\c2ccc(F)c([N+](=O)[O-])c2)C(=O)/C(=C/c2ccc(F)c([N+](=O)[O-])c2)C1` [VLX-1570], the “ExcessHSA synergy score with TAK-243” value in the experiment on NCI-H295R is -147; with CU-ACC1 it was 79.8.

In the case of `N[C@H]1CC[C@H](N[C@@H]2C[C@H]2c2ccccc2)CC1` [ORY-1001], the “ExcessHSA synergy score with TAK-243” value in the experiment with NCI-H295R is -493; with CU-ACC1, -384.

For `CS(=O)(=O)c1ccc(C(=O)Nc2ccc(Cl)c(-c3ccccn3)c2)c(Cl)c1` [Vismodegib], the “ExcessHSA synergy score with TAK-243” value in the experiment on NCI-H295R is -5.69; with CU-ACC1, -206.

Take `CS(=O)(=O)c1ccc(Oc2cc(F)cc(C#N)c2)c2c1[C@H](O)[C@H](F)[C@@H]2F` [PT-2977]: the figures for the “ExcessHSA synergy score with TAK-243” value in the experiment on NCI-H295R and in the experiment with CU-ACC1 were 801 and 217, respectively.

With `C=CCNC1=C2C[C@@H](C)C[C@H](OC)[C@H](O)[C@@H](C)/C=C(\C)[C@H](OC(N)=O)[C@@H](OC)/C=C\C=C(/C)C(=O)NC(=CC1=O)C2=O` [17-AAG], the “ExcessHSA synergy score with TAK-243” value with NCI-H295R is -251; in the experiment with CU-ACC1, 421.

In the case of `CSC[C@H]1CN(Cc2c[nH]c3c(N)ncnc23)C[C@@H]1O` [MT-DADMe-ImmA], the “ExcessHSA synergy score with TAK-243” value was 422 with NCI-H295R and -323 in the experiment with CU-ACC1.

`NC(=O)/C(=C/n1cnc(-c2cc(C(F)(F)F)cc(C(F)(F)F)c2)n1)c1cncnc1` [Eltanexor]: the “ExcessHSA synergy score with TAK-243” value is -429 in the experiment with NCI-H295R and -817 with CU-ACC1.

For the molecule `O=C(c1ccc(F)c(F)c1Nc1ccc(I)cc1F)N1CC(O)([C@@H]2CCCCN2)C1` [Cobimetinib], the “ExcessHSA synergy score with TAK-243” value in the experiment on NCI-H295R came to 819; in the experiment on CU-ACC1 it was 450.

In the case of `COc1c(OCCCN2CCOCC2)ccc2c3n(c(=NC(=O)c4cnc(N)nc4)nc12)CCN3` [Copanlisib], the “ExcessHSA synergy score with TAK-243” value with NCI-H295R amounted to 87; in the experiment on CU-ACC1, 70.4.

As for `C/C=C(/C)C(=O)O[C@H]1C(C)=C2[C@H]([C@@H]1OC(=O)CCCCCCC)[C@@](C)(OC(C)=O)C[C@H](OC(=O)CCC)[C@@]1(O)[C@H]2OC(=O)[C@@]1(C)O` [Thapsigargin], the results for the “ExcessHSA synergy score with TAK-243” value in the experiment with NCI-H295R and in the experiment on CU-ACC1 were -409 and -443, respectively.

For the molecule `Cc1nc2cccc(N)c2c(=O)n1C1CCC(=O)NC1=O` (centres undefined) [Avadomide], the “ExcessHSA synergy score with TAK-243” value is 1030 with NCI-H295R and -213 in the experiment with CU-ACC1.

On to `CCOC(=O)c1ccc(C#Cc2ccc3c(c2)C(C)(C)CCS3)nc1` [Tazarotene], for which the figures for the “ExcessHSA synergy score with TAK-243” value in the experiment on NCI-H295R and in the experiment on CU-ACC1 were 136 and 230, respectively.

For `COC1CCC(n2c([C@@H]3CCCC(=O)N3c3ccc(F)c(F)c3)nc3cc(-c4c(C)noc4C)ccc32)CC1` (some centres undefined) [CBP/p300-IN-4], the “ExcessHSA synergy score with TAK-243” value was -244 in the experiment on NCI-H295R and -96.9 with CU-ACC1.

Regarding `Nc1cccc2c1CN(C1CCC(=O)NC1=O)C2=O` (centres undefined) [Lenalidomide], the “ExcessHSA synergy score with TAK-243” value in the experiment with NCI-H295R is 364; in the experiment on CU-ACC1 it was 337.

Regarding `CCc1cnn2c(NCc3ccc[n+]([O-])c3)cc(N3CCCC[C@H]3CCO)nc12` [Dinaciclib], the results for the “ExcessHSA synergy score with TAK-243” value in the experiment with NCI-H295R and in the experiment on CU-ACC1 were 170 and 86.7, respectively.

In the case of `CN(C)C/C=C/C(=O)Nc1ccc(C(=O)Nc2cccc(Nc3ncc(Cl)c(-c4c[nH]c5ccccc45)n3)c2)cc1` [THZ1], the results for the “ExcessHSA synergy score with TAK-243” value in the experiment with NCI-H295R and in the experiment on CU-ACC1 were -128 and -55.8, respectively.

`CN(Cc1cnc2nc(N)nc(N)c2n1)c1ccc(C(=O)N[C@@H](CCC(=O)O)C(=O)O)cc1` [Methotrexate]: the “ExcessHSA synergy score with TAK-243” value with NCI-H295R worked out at 591; with CU-ACC1, 544.

With `Cc1cccc(CC(=O)N2CCc3c2ccc(-c2cn(C)c4ncnc(N)c24)c3F)n1`, the “ExcessHSA synergy score with TAK-243” value is 173 in the experiment on NCI-H295R and -151 in the experiment on CU-ACC1.

Consider `O=C(N[C@@H](Cc1coc2ccccc12)B(O)O)[C@@H]1C[C@H]2CC[C@@H]1O2` [LMP7-IN-1], for which the “ExcessHSA synergy score with TAK-243” value in the experiment with NCI-H295R was -55.7; with CU-ACC1, -335.
